We go through 24 compounds from US11104676B2 (priority 2018, dated 2021).

Broadly, the IC50 is the concentration that inhibits the measured activity by half.

The assay deals with GST-tagged recombinant human TYRO3 kinase domain (Homo sapiens (Human), UniProt Q06418). Particulars: read-out: TYRO3 enzyme IC50.
Sequence of GST-tagged recombinant human TYRO3 kinase domain (Q06418 518-790): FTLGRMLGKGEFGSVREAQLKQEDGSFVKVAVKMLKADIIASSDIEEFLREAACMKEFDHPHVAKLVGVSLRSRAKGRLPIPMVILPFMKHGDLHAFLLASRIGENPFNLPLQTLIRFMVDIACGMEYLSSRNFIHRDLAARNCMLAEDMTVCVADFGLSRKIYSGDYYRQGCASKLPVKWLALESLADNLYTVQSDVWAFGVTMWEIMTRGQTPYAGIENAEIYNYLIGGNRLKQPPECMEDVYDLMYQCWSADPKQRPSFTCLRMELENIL
Turning to `COC[C@@H]1CCC[C@@H]1Nc1n[nH]c2nccc(Oc3ccc(NC(=O)c4ccnn(-c5ccc(F)cc5)c4=O)cc3F)c12` (relative stereo) [Example 28, N-(3-fluoro-4-((3-((cis-2-(methoxymethyl)cyclopentyl)amino)-1H-pyrazolo[3,4-b]pyridin-4-yl)oxy)phenyl)-2-(4-fluorophenyl)-3-oxo-2,3-dihydropyridazine-4-carboxamide], the IC50 turned out to be 375 nM.

Turning to `O=C(Nc1ccc(Oc2ccnc3[nH]nc(NC4CC(F)(F)C4)c23)c(F)c1)c1ccnn(-c2ccc(F)cc2)c1=O` [Example 12, N-(4-((3-((3,3-difluorocyclobutyl)amino)-1H-pyrazolo[3,4-b]pyridin-4-yl)oxy)-3-fluorophenyl)-2-(4-fluorophenyl)-3-oxo-2,3-dihydropyridazine-4-carboxamide], the half-maximal inhibitory concentration (IC50) amounted to 295 nM.

For the compound `COCC(C)(C)Nc1n[nH]c2nccc(Oc3ccc(NC(=O)c4ccnn(-c5ccc(F)cc5)c4=O)cc3F)c12` [Example 18, N-(3-fluoro-4-((3-((1-methoxy-2-methylpropan-2-yl)amino)-1H-pyrazolo[3,4-b]pyridin-4-yl)oxy)phenyl)-2-(4-fluorophenyl)-3-oxo-2,3-dihydropyridazine-4-carboxamide], the IC50 was 131 nM.

As for `COCC1(Nc2n[nH]c3nccc(Oc4ccc(NC(=O)c5ccnn(-c6ccc(F)cc6)c5=O)cc4F)c23)CCCC1` [Example 20, N-(3-fluoro-4-((3-((1-(methoxymethyl)cyclopentyl)amino)-1H-pyrazolo[3,4-b]pyridin-4-yl)oxy)phenyl)-2-(4-fluorophenyl)-3-oxo-2,3-dihydropyridazine-4-carboxamide], the half-maximal inhibitory concentration (IC50) was determined as 536 nM.

For `COCC1(Nc2n[nH]c3nccc(Oc4ccc(NC(=O)c5ccnn(-c6ccc(F)cc6)c5=O)cc4F)c23)CCC1` [Example 21, N-(3-fluoro-4-((3-((1-(methoxymethyl)cyclobutyl)amino)-1H-pyrazolo[3,4-b]pyridin-4-yl)oxy)phenyl)-2-(4-fluorophenyl)-3-oxo-2,3-dihydropyridazine-4-carboxamide], the IC50 is 188 nM.

For the compound `COCCC(C)(C)Nc1n[nH]c2nccc(Oc3ccc(NC(=O)c4ccnn(-c5ccc(F)cc5)c4=O)cc3F)c12` [Example 22, N-(3-fluoro-4-((3-((4-methoxy-2-methylbutan-2-yl)amino)-1H-pyrazolo[3,4-b]pyridin-4-yl)oxy)phenyl)-2-(4-fluorophenyl)-3-oxo-2,3-dihydropyridazine-4-carboxamide], the half-maximal inhibitory concentration (IC50) stood at 318 nM.

With `O=C(Nc1ccc(Oc2ccnc3[nH]nc(NCC4CCS(=O)(=O)C4)c23)c(F)c1)c1ccnn(-c2ccc(F)cc2)c1=O` (stereo not drawn) [Example 24, N-(4-((3-(((1,1-dioxidotetrahydrothiophen-3-yl)methyl)amino)-1H-pyrazolo[3,4-b]pyridin-4-yl)oxy)-3-fluorophenyl)-2-(4-fluorophenyl)-3-oxo-2,3-dihydropyridazine-4-carboxamide], the IC50 is 120 nM.

Regarding `COCC(C)(C)Nc1n[nH]c2nccc(Oc3ccc(NC(=O)c4ccnn(-c5ccc(F)cc5)c4=O)nc3)c12` [Example 71, 2-(4-fluorophenyl)-N-(5-((3-((1-methoxy-2-methylpropan-2-yl)amino)-1H-pyrazolo[3,4-b]pyridin-4-yl)oxy)pyridin-2-yl)-3-oxo-2,3-dihydropyridazine-4-carboxamide], the 50% inhibitory concentration (IC50) stood at 192 nM.

Turning to `Cc1c(C(=O)Nc2ccc(Oc3ccnc4[nH]nc(N[C@H](C)CO)c34)c(F)c2)c(=O)n(-c2ccccc2)n1C` [Example 86, (R)-N-(3-fluoro-4-((3-((1-hydroxypropan-2-yl)amino)-1H-pyrazolo[3,4-b]pyridin-4-yl)oxy)phenyl)-1,5-dimethyl-3-oxo-2-phenyl-2,3-dihydro-1H-pyrazole-4-carboxamide], the IC50 was 104 nM.

Consider `C[C@H](CO)Nc1n[nH]c2nccc(Oc3ccc(NC(=O)c4cn(C)n(-c5ccccc5)c4=O)cc3F)c12` [Example 87, (R)-N-(3-fluoro-4-((3-((1-hydroxypropan-2-yl)amino)-1H-pyrazolo[3,4-b]pyridin-4-yl)oxy)phenyl)-1-methyl-3-oxo-2-phenyl-2,3-dihydro-1H-pyrazole-4-carboxamide], for which the IC50 came to 432 nM.

As to `C[C@H](CO)Nc1n[nH]c2nccc(Oc3ccc(NC(=O)c4cn(C)n(-c5ccc(F)cc5)c4=O)cc3F)c12` [Example 88, (R)-N-(3-fluoro-4-((3-((1-hydroxypropan-2-yl)amino)-1H-pyrazolo[3,4-b]pyridin-4-yl)oxy)phenyl)-2-(4-fluorophenyl)-1-methyl-3-oxo-2,3-dihydro-1H-pyrazole-4-carboxamide], the concentration for half-maximal inhibition (IC50) was found to be 364 nM.

On to `CC(C)n1cc(C(=O)Nc2ccc(Oc3ccnc4[nH]nc(N[C@H](C)CO)c34)c(F)c2)c(=O)n(-c2cnn(C)c2)c1=O` [Example 93, (R)-N-(3-fluoro-4-((3-((1-hydroxypropan-2-yl)amino)-1H-pyrazoo[3,4-b]pyridin-4-yl)oxy)phenyl)-1-isopropyl-3-(1-methyl-1H-pyrazol-4-yl)-2,4-dioxo-1,2,3,4-tetrahydropyrimidine-5-carboxamide], for which the IC50 worked out at 767 nM.

Regarding `CC(C)n1cc(C(=O)Nc2ccc(Oc3ccnc4[nH]nc(N[C@H](C)CO)c34)c(F)c2)c(=O)n(C(C)C)c1=O` [Example 95, (R)-N-(3-fluoro-4-((3-((1-hydroxypropan-2-yl)amino)-1H-pyrazolo[3,4-b]pyridin-4-yl)oxy)phenyl)-1,3-diisopropyl-2,4-dioxo-1,2,3,4-tetrahydropyrimidine-5-carboxamide], the IC50 was determined as 875 nM.

For the compound `CC(C)n1cc(C(=O)Nc2ccc(Oc3ccnc4[nH]nc(N[C@H](C)CO)c34)c(F)c2)c(=O)n(C2CCOCC2)c1=O` [Example 99, (R)-N-(3-fluoro-4-((3-((1-hydroxypropan-2-yl)amino)-1H-pyrazolo[3,4-b]pyridin-4-yl)oxy)phenyl)-1-isopropyl-2,4-dioxo-3-(tetrahydro-2H-pyran-4-yl)-1,2,3,4-tetrahydropyrimidine-5-carboxamide], the IC50 worked out at 546 nM.

With `C[C@H](CO)Nc1n[nH]c2nccc(Oc3ccc(NC(=O)C4CCCN(c5ccc(F)cc5)C4=O)cc3F)c12` (stereo partly drawn) [Example 101, N-(3-fluoro-4-((3-(((R)-1-hydroxypropan-2-yl)amino)-1H-pyrazolo[3,4-b]pyridin-4-yl)oxy)phenyl)-1-(4-fluorophenyl)-2-oxopiperidine-3-carboxamide], the IC50 is 198 nM.

As for `C[C@H](CO)Nc1n[nH]c2nccc(Oc3ccc(NC(=O)c4cc5c(n(-c6ccc(F)cn6)c4=O)CCCC5=O)cc3F)c12` [Example 111, (R)-N-(3-fluoro-4-((3-((1-hydroxypropan-2-yl)amino)-1H-pyrazolo[3,4-b]pyridin-4-yl)oxy)phenyl)-1-(5-fluoropyridin-2-yl)-2,5-dioxo-1,2,5,6,7,8-hexahydroquinoine-3-carboxamide], the 50% inhibitory concentration (IC50) was found to be 137 nM.

`CCn1nc(C(=O)Nc2ccc(Oc3ccnc4[nH]nc(N[C@@H](C)CO)c34)c(F)c2)c(=O)n(-c2ccc(F)c(F)c2)c1=O` [Example 132, (S)-4-(3,4-difluorophenyl)-2-ethyl-N-(3-fluoro-4-((3-((1-hydroxypropan-2-yl)amino)-1H-pyrazolo[3,4-b]pyridin-4-yl)oxy)phenyl)-3,5-dioxo-2,3,4,5-tetrahydro-1,2,4-triazine-6-carboxamide]: the half-inhibitory concentration (IC50) worked out at 348 nM.

As for `CCn1nc(C(=O)Nc2ccc(Oc3ccnc4[nH]nc(N[C@H](C)CO)c34)c(F)c2)c(=O)n(-c2ccc(F)c(F)c2)c1=O` [Example 133, (R)-4-(3,4-difluorophenyl)-2-ethyl-N-(3-fluoro-4-((3-((1-hydroxypropan-2-yl)amino)-1H-pyrazolo[3,4-b]pyridin-4-yl)oxy)phenyl)-3,5-dioxo-2,3,4-5-tetrahydro-1,2,4-triazine-6-carboxamide], the IC50 amounted to 130 nM.

In the case of `CCn1cc(C(=O)Nc2ccc(Oc3ccnc4[nH]nc(NC(C)(C)COC)c34)c(F)c2)c(=O)n(-c2ccc(F)cc2)c1=O` [Example 157, 1-ethyl-N-(3-fluoro-4-((3-((1-methoxy-2-methylpropan-2-yl)amino)-1H-pyrazolo[3,4-b]pyridin-4-yl)oxy)phenyl)-3-(4-fluorophenyl)-2,4-dioxo-1,2,3,4-tetrahydropyrimidine-5-carboxamide], the IC50 came to 118 nM.

For `COCC(C)(C)Nc1n[nH]c2nccc(Oc3ccc(NC(=O)c4cn(C)c(=O)n(-c5ccc(F)cc5)c4=O)cc3F)c12` [Example 158, N-(3-fluoro-4-((3-((1-methoxy-2-methylpropan-2-yl)amino)-1H-pyrazolo[3,4-b]pyridin-4-yl)oxy)phenyl)-3-(4-fluorophenyl)-1-methyl-2,4-dioxo-1,2,3,4-tetrahydropyrimidine-5-carboxamide], the IC50 is 104 nM.

In the case of `COCC(C)(C)Nc1n[nH]c2nccc(Oc3ccc(NC(=O)c4cn(CCO)c(=O)n(-c5ccc(F)cc5)c4=O)cc3F)c12` [Example 159, N-(3-fluoro-4-((3-((1-methoxy-2-methylpropan-2-yl)amino)-1H-pyrazolo[3,4-b]pyridin-4-yl)oxy)phenyl)-3-(4-fluorophenyl)-1-(2-hydroxyethyl)-2,4-dioxo-1,2,3,4-tetrahydropyrimidine-5-carboxamide], the 50% inhibitory concentration (IC50) amounted to 420 nM.

Turning to `CC(CC(F)F)Nc1n[nH]c2nccc(Oc3ccc(NC(=O)c4cn(C)cc(-c5ccc(F)cc5)c4=O)nc3)c12` (stereo not drawn) [Example 167, N-(5-((3-((4,4-difluorobutan-2-yl)amino)-1H-pyrazolo[3,4-b]pyridin-4-yl)oxy)pyridin-2-yl)-5-(4-fluorophenyl)-1-methyl-4-oxo-1,4-dihydropyridine-3-carboxamide], the IC50 turned out to be 224 nM.

Consider `Cc1cc(C(=O)Nc2ccc(Oc3ccnc4[nH]nc(NC(C)CC(F)F)c34)cn2)c(=O)n(-c2ccc(F)cc2)c1` (stereo not drawn) [Example 168, N-(5-((3-((4,4-difluorobutan-2-yl)amino)-1H-pyrazolo[3,4-b]pyridin-4-yl)oxy)pyridin-2-yl)-1-(4-fluorophenyl)-5-methyl-2-oxo-1,2-dihydropyridine-3-carboxamide], for which the 50% inhibitory concentration (IC50) was determined as 248 nM.

As to `CCOC[C@H](C)Nc1n[nH]c2nccc(Oc3ccc(NC(=O)c4cc(C)cn(-c5ccc(F)cc5)c4=O)cc3F)c12` [Example 172, (S)-N-(4-((3-((1-ethoxypropan-2-yl)amino)-1H-pyrazolo[3,4-b]pyridin-4-yl)oxy)-3-fluorophenyl)-1-(4-fluorophenyl)-5-methyl-2-oxo-1,2-dihydropyridine-3-carboxamide], the half-inhibitory concentration (IC50) came out at 133 nM.
